The values below come from patent US9416141B2 (University of Washington through its Center for …, priority 2012, dated 2016).

For this assay, the system named is hair cells. The assay is described as follows: Hair cell toxicity assay in zebrafish (neomycin-induced hair cell death, DASPEI staining of neuromasts). The format is in vivo. The settings on record: Danio rerio; for EC50: zebrafish larvae 5-7 dpf, 1 h pre-treatment, then 200 micromolar neomycin + test compound 30 min, read-out: HC50 (concentration that would produce 50% hair cell survival); for Emax at 8.3 µM: maximum observed @ 8.3 μM test compound; for Emax at 6.3 µM: maximum observed @ 6.3 μM test compound; for Emax at 25 µM: maximum observed @ 25 μM test compound; for Emax at 2.8 µM: maximum observed @ 2.8 μM test compound. In outline: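 Zebrafish larvae 5-7 dpf pre-treated 1 h with compound (0.010-25 μM), then 30 min with 200 μM neomycin plus compound. DASPEI stained 10 neuromasts per fish, scored 0-2 (total 0-20), normalised to vehicle controls as % hair cell survival. HC50 linearly interpolated if survival reached ≥50%; HCmax is maximum survival.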

The mark [1] stands for this setting: 200 micromolar neomycin, read-out: Max HC Protection (HCmax, % hair cell survival).

A value given as a limit tells only on which side of the number the result lay.

For `NC(=O)c1c(NC(=O)Nc2ccc(Cl)cc2)sc2c1CC[N+](CCCO)(CCCO)C2` [Example 201, 3-Carbamoyl-2-[3-(4-chlorophenyl)ureido]-6,6-bis(3-hydroxypropyl)-4,5,6,7-tetrahydrothieno[2,3-c]pyridin-6-ium chloride], the EC50 is less than 1000 nM. Moreover, the Emax at 2.5 µM (maximum observed @ 2.5 μM test compound, 200 micromolar neomycin, read-out: Max HC Protection (HCmax, % hair cell survival)) came out at 102%.

On to `CC(C)(O)C[N+]1(C)CCc2c(sc(NC(=O)Nc3ccc(Cl)cc3)c2C(N)=O)C1` (stereo not shown) [Example 202, 3-Carbamoyl-2-[3-(4-chlorophenyl)ureido]-6-(2-hydroxy-2-methylpropyl)-6-methyl-4,5,6,7-tetrahydrothieno[2,3-c]pyridin-6-ium iodide], for which the EC50 was less than 1000 nM. Also, under setting [1], the Emax at 8.3 µM was determined as 85%.

Regarding `CC(C)(C)OC(=O)NCCCN1CCc2c(sc(NC(=O)Nc3ccc(Cl)cc3)c2C(N)=O)C1` [Example 205, tert-butyl N-[3-(3-carbamoyl-2-{[(4-chlorophenyl)carbamoyl]amino}-4H,5H,6H,7H-thieno[2,3-c]pyridin-6-yl)propyl]carbamate], the EC50 was in the range of 1000 to 10000 nM. The Emax at 6.3 µM under setting [1] is 81%.

Take `CC(C)(C)OC(=O)NCCCN1CCc2c(sc(NC(=O)Nc3ccc4ccccc4c3)c2C(N)=O)C1` [Example 206, tert-Butyl N-[3-(3-carbamoyl-2-{[(naphthalen-2-yl)carbamoyl]amino}-4H,5H,6H,7H-thieno[2,3-c]pyridin-6-yl)propyl]carbamate]: the EC50 lay within 1000 to 10000 nM. Also, the Emax at 6.3 µM under setting [1] was found to be 88%.

For the compound `NC(=O)c1c(NC(=O)Nc2ccc(I)cc2)sc2c1CCN(CCCOCc1ccccc1)C2` [Example 207], the EC50 is 1000 to 10000 nM. Under setting [1], the Emax at 25 µM worked out at 66%.

Regarding `CC(C)(C)OC(=O)NCCCN1CCc2c(sc(NC(=O)Nc3ccc(C(=O)c4ccccc4)cc3)c2C(N)=O)C1` [Example 208, tert-Butyl N-[3-(2-{[(4-benzoylphenyl)carbamoyl]amino}-3-carbamoyl-4H,5H,6H,7H-thieno[2,3-c]pyridin-6-yl)propyl]carbamate], the EC50 lay within 1000 to 10000 nM. For the same compound, under setting [1], the Emax at 2.8 µM was found to be 56%.

On to `NC(=O)c1c(NC(=O)Nc2ccc(Cl)cc2)sc2c1CCN(CCCNC(=O)CCc1c[nH]c3ccccc13)C2` [Example 209, 2-{[(4-chlorophenyl)carbamoyl]amino}-6-{3-[3-(1H-indol-3-yl)propanamido]propyl}-4H,5H,6H,7H-thieno[2,3-c]pyridine-3-carboxamide], for which the EC50 was less than 1000 nM. For the same compound, under setting [1], the Emax at 2.8 µM was 98%.

Regarding `NC(=O)c1c(NC(=O)Nc2ccc(Cl)cc2)sc2c1CCN(CCCNC(=O)CCc1ccccc1)C2` [Example 210, 2-{[(4-chlorophenyl)carbamoyl]amino}-6-[3-(3-phenylpropanamido)propyl]-4H,5H,6H,7H-thieno[2,3-c]pyridine-3-carboxamide], the EC50 was less than 1000 nM. Besides, the Emax at 25 µM under setting [1] stood at 99%.

Turning to `NC(=O)c1c(NC(=O)Nc2ccc(Cl)cc2)sc2c1CCN(CCCNC(=O)CCc1cccnc1)C2` [Example 211, 2-{[(4-chlorophenyl)carbamoyl]amino}-6-{3-[3-(pyridin-3-yl)propanamido]propyl}-4H,5H,6H,7H-thieno[2,3-c]pyridine-3-carboxamide], the EC50 was less than 1000 nM. Besides, the Emax at 25 µM under setting [1] was determined as 95%.

As for `NC(=O)c1c(NC(=O)Nc2ccc(Cl)cc2)sc2c1CCN(CCCNC(=O)c1ccccc1)C2` [Example 212, 2-{[(4-chlorophenyl)carbamoyl]amino}-6-[3-(phenylformamido)propyl]-4H,5H,6H,7H-thieno[2,3-c]pyridine-3-carboxamide], the EC50 was in the range of 1000 to 10000 nM. The Emax at 25 µM under setting [1] is 103%.

Take `CC(C)(C)c1ccc(CCC(=O)NCCCN2CCc3c(sc(NC(=O)Nc4ccc(Cl)cc4)c3C(N)=O)C2)cc1` [Example 213, 6-{3-[3-(4-tert-butylphenyl)propanamido]propyl}-2-{[(4-chlorophenyl)carbamoyl]amino}-4H,5H,6H,7H-thieno[2,3-c]pyridine-3-carboxamide]: the EC50 was less than 1000 nM. Further, the Emax at 2.8 µM under setting [1] worked out at 92%.

On to `NC(=O)c1c(NC(=O)Nc2ccc(Cl)cc2)sc2c1CCN(CCCNC(=O)CCc1cccc3ccccc13)C2` [Example 214, 2-{[(4-chlorophenyl)carbamoyl]amino}-6-{3-[3-(naphthalen-1-yl)propanamido]propyl}-4H,5H,6H,7H-thieno[2,3-c]pyridine-3-carboxamide], for which the EC50 is less than 1000 nM. Further, the Emax at 2.8 µM under setting [1] was 95%.

For the compound `NC(=O)c1c(NC(=O)Nc2ccc(Cl)cc2)sc2c1CCN(CCCNC(=O)C1CC1)C2` [Example 215, 2-{[(4-chlorophenyl)carbamoyl]amino}-6-[3-(cyclopropylformamido)propyl]-4H,5H,6H,7H-thieno[2,3-c]pyridine-3-carboxamide], the EC50 fell in the range of 1000 to 10000 nM. Also, under setting [1], the Emax at 25 µM came to 95%.

On to `C#CCCC(=O)NCCCN1CCc2c(sc(NC(=O)Nc3ccc(Cl)cc3)c2C(N)=O)C1` [Example 216, 2-{[(4-chlorophenyl)carbamoyl]amino}-6-[3-(pent-4-ynamido)propyl]-4H,5H,6H,7H-thieno[2,3-c]pyridine-3-carboxamide], for which the EC50 was in the range of 1000 to 10000 nM. The Emax at 25 µM under setting [1] was determined as 97%.

Regarding `NC(=O)c1c(NC(=O)Nc2ccc(Cl)cc2)sc2c1CCN(CCCNC(=O)/C=C/c1ccccc1)C2` [Example 217, 2-{[(4-chlorophenyl)carbamoyl]amino}-6-{3-[(2E)-3-phenylprop-2-enamido]propyl}-4H,5H,6H,7H-thieno[2,3-c]pyridine-3-carboxamide], the EC50 is less than 1000 nM. Besides, the Emax at 2.8 µM under setting [1] is 93%.

On to `NC(=O)c1c(NC(=O)Nc2ccc(Cl)cc2)sc2c1CCN(CCCNC(=O)CCc1ccc(C(F)(F)F)cc1)C2` [Example 218, 2-{[(4-chlorophenyl)carbamoyl]amino}-6-(3-{3-[4-(trifluoromethyl)phenyl]propanamido}propyl)-4H,5H,6H,7H-thieno[2,3-c]pyridine-3-carboxamide], for which the EC50 was less than 1000 nM. The Emax at 2.8 µM under setting [1] is 103%.

Consider `CCCC[N+]1(C)CCc2c(sc(NC(=O)Nc3ccc(Cl)cc3)c2C(N)=O)C1` (stereo not shown) [Example 219, 6-butyl-3-carbamoyl-2-{[(4-chlorophenyl)carbamoyl]amino}-6-methyl-4H,5H,6H,7H-thieno[2,3-c]pyridin-6-ium], for which the EC50 was less than 1000 nM. Moreover, under setting [1], the Emax at 25 µM was 92%.

With `CC[N+]1(C)CCc2c(sc(NC(=O)Nc3ccc(Br)cc3)c2C(N)=O)C1` (stereo not shown) [Example 220, 2-{[(4-bromophenyl)carbamoyl]amino}-3-carbamoyl-6-ethyl-6-methyl-4H,5H,6H,7H-thieno[2,3-c]pyridin-6-ium], the EC50 was less than 1000 nM. The Emax at 25 µM under setting [1] is 98%.

As for `CCN1CCc2c(sc(NC(=O)Nc3ccc(C(F)(F)F)cc3)c2C(N)=O)C1` [Example 221, 6-ethyl-2-({[4-(trifluoromethyl)phenyl]carbamoyl}amino)-4H,5H,6H,7H-thieno[2,3-c]pyridine-3-carboxamide], the EC50 lay in the range of 1000 to 10000 nM. Besides, the Emax at 25 µM under setting [1] was 68%.

For `CCN1CCc2c(sc(NC(=O)Nc3ccc(Br)cc3)c2C(N)=O)C1` [Example 222, 2-{[(4-bromophenyl)carbamoyl]amino}-6-ethyl-4H,5H,6H,7H-thieno[2,3-c]pyridine-3-carboxamide], the EC50 was in the range of 1000 to 10000 nM. Also, under setting [1], the Emax at 25 µM was 90%.

`CCN1CCc2c(sc(NC(=O)Nc3ccc4ccccc4c3)c2C(N)=O)C1` [Example 223, 6-ethyl-2-{[(naphthalen-2-yl)carbamoyl]amino}-4H,5H,6H,7H-thieno[2,3-c]pyridine-3-carboxamide]: the EC50 was 1000 to 10000 nM. In addition, the Emax at 25 µM under setting [1] amounted to 104%.

For `CCN1CCc2c(sc(NC(=O)Nc3ccc(I)cc3)c2C(N)=O)C1` [Example 224, 6-ethyl-2-{[(4-iodophenyl)carbamoyl]amino}-4H,5H,6H,7H-thieno[2,3-c]pyridine-3-carboxamide], the EC50 was 1000 to 10000 nM. The Emax at 12.5 µM (maximum observed @ 12.5 μM test compound, 200 micromolar neomycin, read-out: Max HC Protection (HCmax, % hair cell survival)) was 94%.

`CCN1CCc2c(sc(NC(=O)Nc3ccc(Oc4ccccc4)cc3)c2C(N)=O)C1` [Example 225, 6-ethyl-2-{[(4-phenoxyphenyl)carbamoyl]amino}-4H,5H,6H,7H-thieno[2,3-c]pyridine-3-carboxamide]: the EC50 lay within 1000 to 10000 nM. For the same compound, under setting [1], the Emax at 25 µM was 91%.

As for `CCN1CCc2c(sc(NC(=O)Nc3ccc(Cc4ccccc4)cc3)c2C(N)=O)C1` [Example 226, 2-{[(4-benzylphenyl)carbamoyl]amino}-6-ethyl-4H,5H,6H,7H-thieno[2,3-c]pyridine-3-carboxamide], the EC50 is 1000 to 10000 nM. Besides, the Emax at 8.3 µM under setting [1] is 68%.

In the case of `CCN1CCc2c(sc(NC(=O)Nc3ccc4c(c3)CCCC4)c2C(N)=O)C1` [Example 227, 6-ethyl-2-{[(5,6,7,8-tetrahydronaphthalen-2-yl)carbamoyl]amino}-4H,5H,6H,7H-thieno[2,3-c]pyridine-3-carboxamide], the EC50 was in the range of 1000 to 10000 nM. Under setting [1], the Emax at 25 µM came to 80%.

With `CCN1CCc2c(sc(NC(=O)Nc3ccc(Cl)c4ccccc34)c2C(N)=O)C1` [Example 228, 2-{[(4-chloronaphthalen-1-yl)carbamoyl]amino}-6-ethyl-4H,5H,6H,7H-thieno[2,3-c]pyridine-3-carboxamide], the EC50 was in the range of 1000 to 10000 nM. Also, the Emax at 25 µM under setting [1] was found to be 93%.
